# Measurements published in patent US12157746B2, “Tetrahydro-1H-pyrazino[2,1-a]isoindolylquinoline compounds for the treatment of autoimmune disease” (F. HOFFMANN-LA ROCHE AG, priority 2018, dated 2024).
# Target: T1, human TLR8 (Homo sapiens, UniProt Q9NR97)
# T1 sequence (Q9NR97 27-1041): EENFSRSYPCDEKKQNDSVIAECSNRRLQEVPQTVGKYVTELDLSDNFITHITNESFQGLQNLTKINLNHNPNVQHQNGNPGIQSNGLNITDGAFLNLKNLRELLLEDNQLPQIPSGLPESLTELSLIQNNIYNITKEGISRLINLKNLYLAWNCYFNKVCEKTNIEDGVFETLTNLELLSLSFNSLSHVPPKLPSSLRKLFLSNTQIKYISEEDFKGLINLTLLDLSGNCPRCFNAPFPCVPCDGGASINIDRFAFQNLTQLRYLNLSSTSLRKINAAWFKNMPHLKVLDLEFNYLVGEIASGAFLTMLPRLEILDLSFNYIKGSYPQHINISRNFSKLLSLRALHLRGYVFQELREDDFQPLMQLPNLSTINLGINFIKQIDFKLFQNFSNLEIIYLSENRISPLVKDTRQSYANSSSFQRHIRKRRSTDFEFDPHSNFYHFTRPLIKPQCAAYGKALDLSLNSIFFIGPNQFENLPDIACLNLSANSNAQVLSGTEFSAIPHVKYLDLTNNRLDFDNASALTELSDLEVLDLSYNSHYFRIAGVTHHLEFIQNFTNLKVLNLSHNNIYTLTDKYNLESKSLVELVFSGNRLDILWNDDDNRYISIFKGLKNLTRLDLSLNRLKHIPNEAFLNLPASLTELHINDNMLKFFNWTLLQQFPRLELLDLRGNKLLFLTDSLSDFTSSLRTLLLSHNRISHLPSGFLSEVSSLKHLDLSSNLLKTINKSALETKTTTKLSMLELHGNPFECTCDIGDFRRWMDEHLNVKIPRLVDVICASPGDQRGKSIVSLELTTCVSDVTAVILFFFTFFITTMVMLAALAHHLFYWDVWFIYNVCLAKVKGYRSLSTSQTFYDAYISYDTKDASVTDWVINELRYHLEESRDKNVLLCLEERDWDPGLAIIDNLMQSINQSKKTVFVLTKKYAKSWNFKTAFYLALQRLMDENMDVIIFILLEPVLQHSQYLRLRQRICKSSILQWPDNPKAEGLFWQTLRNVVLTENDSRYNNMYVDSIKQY
# Assay: HEK293-Blue-hTLR-8 cells assay
# Format: cell-based
# Conditions: HEK293-Blue-hTLR8 cells, R848 stimulation, 20 hrs, SEAP reporter; read-out: HEK/hTLR8 IC50
# Description: HEK293-Blue-hTLR-8 Cells Assay:
# A stable HEK293-Blue-hTLR-8 cell line was purchased from InvivoGen (Cat. #: hkb-htlr8, San Diego, California, USA). These cells were originally designed for studying the stimulation of human TLR8 by monitoring the activation of NF-κB. A SEAP (secreted embryonic alkaline phosphatase) reporter gene was placed under the control of the IFN-β minimal promoter fused to five NF-κB and AP-1-binding sites. The SEAP was induced by activating NF-κB and AP-1 via stimulating HEK-Blue hTLR8 cells with TLR8 ligands. Therefore the reporter expression was declined by TLR8 antagonist under the stimulation of a ligand, such as R848, for incubation of 20 hrs. The cell culture supernatant SEAP reporter activity was determined using QUANTI-Blue™kit (Cat. #: rep-qb1, Invivogen, San Diego, Ca, USA) at a wavelength of 640 nm, a detection medium that turns purple or blue in the presence of alkaline phosphatase.
# HEK293-Blue-hTLR8 cells were incubated at a density of 250,000-450,000 cells/mL in a volume of 170 μL in a 96-well plate in Dulbecco's Modified Eagle's medium (DMEM) containing 4.5 g/L glucose, 50 U/mL penicillin, […], […], 2 mM L-glutamine, 10% (v/v) heat-inactivated fetal bovine serum with addition of 20 μL test compound 1n a serial dilution in the presence of final DMSO at 1% and 10 μL of 60 uM R848 in above DMEM, perform incubation under 37° C. in a CO2 incubator for 20 hrs. Then 20 μL of the supernatant from each well was incubated with 180 μL Quanti-blue substrate solution at 37° C. for 2 hrs and the absorbance was read at 620-655 nm using a spectrophotometer. The signaling pathway that TLR8 activation leads to downstream NF-κB activation has been widely accepted, and therefore similar reporter assay was modified for evaluating TLR8 antagonist.
row,SMILES,IC50 [nM]
1,"C[C@@H]1CN(c2ccc(C#N)c3ncccc23)C[C@@H]2c3ccc(N[C@H]4CNC[C@@H]4F)cc3CN12 [Example 31, 5-[(4R,10bS)-8-[[(3S,4S)-4-fluoropyrrolidin-3-yl]amino]-4-methyl-3,4,6,10b-tetrahydro-1H-pyrazino[2,1-a]isoindol-2-yl]quinoline-8-carbonitrile]",< 3.2
2,"C[C@@H]1CN(c2ccc(C#N)c3ncccc23)C[C@@H]2c3ccc(N[C@@H]4CNC[C@@H]4F)cc3CN12 [Example 32, 5-[(4R,10bS)-8-[[(3R,4S)-4-fluoropyrrolidin-3-yl]amino]-4-methyl-3,4,6,10b-tetrahydro-1H-pyrazino[2,1-a]isoindol-2-yl]quinoline-8-carbonitrile]",< 3.2
3,"C[C@@H]1CN(c2ccc(C#N)c3ncccc23)C[C@@H]2c3ccc(N[C@@H]4CNC[C@H]4F)cc3CN12 [Example 33, 5-[(4R,10bS)-8-[[(3R,4R)-4-fluoropyrrolidin-3-yl]amino]-4-methyl-3,4,6,10b-tetrahydro-1H-pyrazino[2,1-a]isoindol-2-yl]quinoline-8-carbonitrile]",< 3.2
4,"CO[C@@H]1CNC[C@H]1Nc1ccc2c(c1)CN1[C@H](C)CN(c3ccc(C#N)c4ncccc34)C[C@H]21 [Example 34, 5-[(4R,10bS)-8-[[(3R,4R)-4-methoxypyrrolidin-3-yl]amino]-4-methyl-3,4,6,10b-tetrahydro-1H-pyrazino[2,1-a]isoindol-2-yl]quinoline-8-carbonitrile]",< 3.2
5,"C[C@@H]1CN(c2ccc(C#N)c3ncccc23)C[C@@H]2c3ccc(N4CC5(CNCCO5)C4)cc3CN12 [Example 35, 5-[(4R,10bS)-4-methyl-8-(5-oxa-2,8-diazaspiro[3.5]nonan-2-yl)-3,4,6,10b-tetrahydro-1H-pyrazino[2,1-a]isoindol-2-yl]quinoline-8-carbonitrile]",< 3.2
6,"C[C@@H]1CN(c2ccc(C#N)c3ncccc23)C[C@@H]2c3ccc(N4CC5(CNC5)C4)cc3CN12 [Example 36, 5-[(4R,10bS)-8-(2,6-diazaspiro[3.3]heptan-2-yl)-4-methyl-3,4,6,10b-tetrahydro-1H-pyrazino[2,1-a]isoindol-2-yl]quinoline-8-carbonitrile]",< 3.2
7,"C[C@@H]1CN(c2ccc(C#N)c3ncccc23)C[C@@H]2c3ccc(N4CC5(CCN5)C4)cc3CN12 [Example 37, 5-[(4R,10bS)-8-(1,6-diazaspiro[3.3]heptan-6-yl)-4-methyl-3,4,6,10b-tetrahydro-1H-pyrazino[2,1-a]isoindol-2-yl]quinoline-8-carbonitrile]",< 3.2
8,"COC12CNCC1CN(c1ccc3c(c1)CN1[C@H](C)CN(c4ccc(C#N)c5ncccc45)C[C@H]31)C2 (stereo partly drawn) [Example 41, 5-[(4R,10bS)-8-(3a-methoxy-1,2,3,4,6,6a-hexahydropyrrolo[3,4-c]pyrrol-5-yl)-4-methyl-3,4,6,10b-tetrahydro-1H-pyrazino[2,1-a]isoindol-2-yl]quinoline-8-carbonitrile]",< 3.2
9,"CN[C@H]1CN(c2ccc3c(c2)CN2[C@H](C)CN(c4ccc(C#N)c5ncccc45)C[C@H]32)C[C@@H]1O [Example 42, 5-[(4R,10bS)-8-[(3S,4S)-3-hydroxy-4-(methylamino)pyrrolidin-1-yl]-4-methyl-3,4,6,10b-tetrahydro-1H-pyrazino[2,1-a]isoindol-2-yl]quinoline-8-carbonitrile]",< 3.2
10,"CN[C@@H]1CN(c2ccc3c(c2)CN2[C@H](C)CN(c4ccc(C#N)c5ncccc45)C[C@H]32)C[C@H]1O [Example 43, 5-[(4R,10bS)-4-methyl-8-[(3R,4R)-3-hydroxy-4-(methylamino)pyrrolidin-1-yl]-3,4,6,10b-tetrahydro-1H-pyrazino[2,1-a]isoindol-2-yl]quinoline-8-carbonitrile]",< 3.2

# The next lines start with the values.
row,IC50 [nM],SMILES
1,< 3.2,"C[C@@H]1CN(c2ccc(C#N)c3ncccc23)C[C@@H]2c3ccc(N4CCOC5(CNC5)C4)cc3CN12 [Example 24, 5-[(4R,10bS)-4-methyl-8-(5-oxa-2,8-diazaspiro[3.5]nonan-8-yl)-3,4,6,10b-tetrahydro-1H-pyrazino[2,1-a]isoindol-2-yl]quinoline-8-carbonitrile]"
2,< 3.2,"C[C@@H]1CN(c2ccc(C#N)c3ncccc23)C[C@@H]2c3ccc(OCCN(C)C)cc3CN12 [Example 25, 5-[(4R,10bS)-8-[2-(dimethylamino)ethoxy]-4-methyl-3,4,6,10b-tetrahydro-1H-pyrazino[2,1-a]isoindol-2-yl]quinoline-8-carbonitrile]"
3,< 3.2,"C[C@@H]1CN(c2ccc(C#N)c3ncccc23)C[C@@H]2c3ccc(NCCN(C)C)cc3CN12 [Example 26, 5-[(4R,10bS)-8-[2-(dimethylamino)ethylamino]-4-methyl-3,4,6,10b-tetrahydro-1H-pyrazino[2,1-a]isoindol-2-yl]quinoline-8-carbonitrile]"
4,< 3.2,"C[C@@H]1CN(c2ccc(C#N)c3ncccc23)C[C@@H]2c3ccc(NC4CNC4)cc3CN12 [Example 28, 5-[(4R,10S)-8-(azetidin-3-ylamino)-4-methyl-3,4,6,10b-tetrahydro-1H-pyrazino[2,1-a]isoindol-2-yl]quinoline-8-carbonitrile]"
5,< 3.2,"C[C@@H]1CN(c2ccc(C#N)c3ncccc23)C[C@@H]2c3ccc(C4CNC4)cc3CN12 [Example 29, 5-[(4R,10bS)-8-(azetidin-3-yl)-4-methyl-3,4,6,10b-tetrahydro-1H-pyrazino[2,1-a]isoindol-2-yl]quinoline-8-carbonitrile]"
6,< 3.2,"C[C@@H]1CN(c2ccc(C#N)c3ncccc23)C[C@@H]2c3ccc(N[C@H]4CNC[C@H]4F)cc3CN12 [Example 30, 5-[(4R,10bS)-8-[[(3S,4R)-4-fluoropyrrolidin-3-yl]amino]-4-methyl-3,4,6,10b-tetrahydro-1H-pyrazino[2,1-a]isoindol-2-yl]quinoline-8-carbonitrile]"
7,< 0.3,"C[C@@H]1CN(c2ccc(C#N)c3ncccc23)C[C@@H]2c3ccc(N4CC5(CN(C)C5)C4)cc3CN12 [Example 38, 5-[(4R,10bS)-4-methyl-8-(6-methyl-2,6-diazaspiro[3.3]heptan-2-yl)-3,4,6,10b-tetrahydro-1H-pyrazino[2,1-a]isoindol-2-yl]quinoline-8-carbonitrile]"
8,< 0.3,"C[C@@H]1CN(c2ccc(C#N)c3ncccc23)C[C@@H]2c3ccc(N4CC(C)(N)C4)cc3CN12 [Example 39, 5-[(4R,10bS)-8-(3-amino-3-methyl-azetidin-1-yl)-4-methyl-3,4,6,10b-tetrahydro-1H-pyrazino[2,1-a]isoindol-2-yl]quinoline-8-carbonitrile]"
9,1.4,"C[C@@H]1CN(c2ccc(C#N)c3ncccc23)C[C@@H]2c3ccc(N4C[C@H](N)[C@@H](O)C4)cc3CN12 [Example 40A, 5-[(4R,10bS)-8-[(3S,4S)-3-amino-4-hydroxy-pyrrolidin-1-yl]-4-methyl-3,4,6,10b-tetrahydro-1H-pyrazino[2,1-a]isoindol-2-yl]quinoline-8-carbonitrile]"
10,0.4,"C[C@@H]1CN(c2ccc(C#N)c3ncccc23)C[C@@H]2c3ccc(N4C[C@H]5NCCO[C@@H]5C4)cc3CN12 [Example 44, 5-[(4R,10bS)-4-methyl-8-[(4aR,7aR)-3,4,4a,5,7,7a-hexahydro-2H-pyrrolo[3,4-b][1,4]oxazin-6-yl]-3,4,6,10b-tetrahydro-1H-pyrazino[2,1-a]isoindol-2-yl]quinoline-8-carbonitrile]"
